Measured values as given in patent US10071957B2, “N-substituted benzamides and methods of use thereof” (GENENTECH, INC., priority 2012, dated 2018).

Target: hNaV1.7 (Homo sapiens (Human), UniProt Q15858)
Test: Competitive binding of tritiated compound to membranes from cells expressing hNav1.7 and the β1 subunit
Details: 100 pM [3H]compound, 18 h, room temperature; read-out: NaV1.7 395 Membrane Binding IC50
Experimental: Tritiated compound binding to membranes isolated from cells that heterologously express hNav1.7 and the β1 subunit
Preparation of membranes containing recombinantly expressed sodium channels: Frozen recombinant cell pellets were thawed on ice and diluted to 4 times the cell pellet weight with ice cold 50 mM Tris HCl, pH 7.4 buffer. The cell suspensions were homogenized on ice using a motorized glass dounce homogeniser. Homogenates were further diluted 8.4 times with ice cold 50 mM Tris HCl, pH 7.4 buffer and then centrifuged at 200×g at 4° C. for 15 min. The supernatants were collected and centrifuged at 10000×g at 4° C. for 50 min. The pellets were then re-suspended in 100 mM NaCl, 20 mM Tris HCl, pH 7.4 buffer containing 1% v/v protease inhibitors (Calbiochem) and re-homogenized on ice. The homogenized membranes were then processed through a syringe equipped with a 26 gauge needle. Protein concentrations were determined by Bradford Assay and the membranes were stored at −80° C.
Radioligand Binding Studies: Saturation experiments. A representative compound of formula (I) was tritiated. Three tritiums were incorporated in place of methyl hydrogens to generate [^3H]compound. Binding of this radioligand was performed in 5 mL borosilicate glass test tubes at room temperature. Binding was initiated by adding membranes to increasing concentrations of [^3H]compound in 100 mM NaCl, 20 mM Tris HCl, pH 7.4 buffer containing 0.01% w/v bovine serum albumin (BSA) for 18 h. Non-specific binding was determined in the presence of 1 μM unlabelled compound. After 18 h, the reactants were filtered through GF/C glass fiber filters presoaked in 0.5% w/v polyethylene imine. Filters were washed with 15 mL ice cold 100 mM NaCl, 20 mM Tris HCl, pH 7.4 buffer containing 0.25% BSA to separate bound from free ligand. [^3H]compound bound to filters was quantified by liquid scintillation counting.
Competitive binding experiments. Binding reactions were performed in 96-well polypropylene plates at room temperature for 18 h. In 360 μL, membranes were incubated with 100 pM [^3H]compound and increasing concentrations of Test Compound. Non-specific binding was defined in the presence of 1 μM unlabelled compound. Reactions were transferred and filtered through 96-well glass fiber/C filter plates presoaked with 0.5% polyethylene imine. The filtered reactions were washed 5 times with 200 μL ice cold buffer containing 0.25% BSA. Bound radioactivity was determined by liquid scintillation counting.
Data Analysis: For saturation experiments, non-specific binding was subtracted from total binding to provide specific binding and these values were recalculated in terms of pmol ligand bound per mg protein. Saturation curves were constructed and dissociation constants were calculated using the single site ligand binding model: Beq=(Bmax*X)/(X+Kd), where Beq is the amount of ligand bound at equilibrium, Bmax is the maximum receptor density, Kd is the dissociation constant for the ligand, and X is the free ligand concentration. For competition studies percent inhibition was determined and IC50 values were calculated using a 4 parameter logistic model (% inhibition=(A+((B−A)/(1+((x/C)^D)))) using XLfit, where A and B are the maximal and minimum inhibition respectively, C is the IC50 concentration and D is the (Hill) slope.

hNaV1.7, sequence (Q15858 whole entry, looked up): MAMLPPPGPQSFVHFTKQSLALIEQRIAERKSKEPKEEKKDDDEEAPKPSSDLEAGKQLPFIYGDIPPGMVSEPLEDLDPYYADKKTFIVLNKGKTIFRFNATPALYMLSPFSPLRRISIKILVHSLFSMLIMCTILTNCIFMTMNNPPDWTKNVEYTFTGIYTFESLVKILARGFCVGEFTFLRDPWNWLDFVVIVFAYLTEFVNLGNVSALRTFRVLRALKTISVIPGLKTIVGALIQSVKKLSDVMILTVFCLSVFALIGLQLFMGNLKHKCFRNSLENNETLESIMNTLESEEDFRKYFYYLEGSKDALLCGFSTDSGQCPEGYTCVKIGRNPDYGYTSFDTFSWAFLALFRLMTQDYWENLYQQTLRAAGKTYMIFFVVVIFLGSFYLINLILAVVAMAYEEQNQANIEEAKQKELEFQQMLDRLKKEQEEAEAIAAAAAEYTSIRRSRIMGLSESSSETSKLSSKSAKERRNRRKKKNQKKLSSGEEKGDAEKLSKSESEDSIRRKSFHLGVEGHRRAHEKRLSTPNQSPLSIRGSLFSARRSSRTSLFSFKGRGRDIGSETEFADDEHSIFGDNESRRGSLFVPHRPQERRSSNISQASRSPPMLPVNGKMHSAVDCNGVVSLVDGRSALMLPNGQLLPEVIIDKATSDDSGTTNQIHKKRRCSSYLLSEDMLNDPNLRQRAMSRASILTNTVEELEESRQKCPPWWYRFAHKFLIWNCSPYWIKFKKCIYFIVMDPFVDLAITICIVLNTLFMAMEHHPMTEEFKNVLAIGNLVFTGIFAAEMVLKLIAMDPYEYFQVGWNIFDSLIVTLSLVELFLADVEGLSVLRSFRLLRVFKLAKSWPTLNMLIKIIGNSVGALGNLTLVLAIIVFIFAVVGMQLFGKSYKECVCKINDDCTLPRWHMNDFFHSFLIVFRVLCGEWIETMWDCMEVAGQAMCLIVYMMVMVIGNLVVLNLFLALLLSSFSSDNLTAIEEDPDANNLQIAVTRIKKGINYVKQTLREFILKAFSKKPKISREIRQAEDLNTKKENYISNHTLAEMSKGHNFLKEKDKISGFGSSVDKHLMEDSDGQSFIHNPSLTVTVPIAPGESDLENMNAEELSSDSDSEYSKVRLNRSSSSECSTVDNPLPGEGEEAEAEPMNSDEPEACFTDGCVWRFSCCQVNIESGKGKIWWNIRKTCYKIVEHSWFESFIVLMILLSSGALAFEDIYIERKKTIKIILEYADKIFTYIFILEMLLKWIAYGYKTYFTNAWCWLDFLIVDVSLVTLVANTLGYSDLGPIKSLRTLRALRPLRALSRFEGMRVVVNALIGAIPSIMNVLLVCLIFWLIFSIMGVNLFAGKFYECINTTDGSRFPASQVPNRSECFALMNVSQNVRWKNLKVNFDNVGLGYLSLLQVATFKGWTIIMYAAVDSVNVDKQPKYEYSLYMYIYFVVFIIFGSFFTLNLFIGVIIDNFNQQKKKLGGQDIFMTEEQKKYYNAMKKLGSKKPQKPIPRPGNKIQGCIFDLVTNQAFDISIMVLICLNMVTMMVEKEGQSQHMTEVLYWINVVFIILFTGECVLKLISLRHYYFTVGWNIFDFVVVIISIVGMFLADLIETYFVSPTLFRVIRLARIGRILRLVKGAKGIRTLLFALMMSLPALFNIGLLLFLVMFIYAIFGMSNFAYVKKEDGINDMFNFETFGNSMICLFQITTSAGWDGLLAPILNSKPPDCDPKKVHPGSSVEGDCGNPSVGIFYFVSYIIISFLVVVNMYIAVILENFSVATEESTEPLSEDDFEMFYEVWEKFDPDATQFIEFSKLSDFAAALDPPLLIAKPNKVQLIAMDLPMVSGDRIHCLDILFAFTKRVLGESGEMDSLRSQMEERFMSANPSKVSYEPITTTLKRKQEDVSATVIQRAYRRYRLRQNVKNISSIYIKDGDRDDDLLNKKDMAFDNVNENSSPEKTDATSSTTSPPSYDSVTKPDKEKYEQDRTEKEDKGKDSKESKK
hNaV1.7, sequence (Q07699 whole entry partner, looked up): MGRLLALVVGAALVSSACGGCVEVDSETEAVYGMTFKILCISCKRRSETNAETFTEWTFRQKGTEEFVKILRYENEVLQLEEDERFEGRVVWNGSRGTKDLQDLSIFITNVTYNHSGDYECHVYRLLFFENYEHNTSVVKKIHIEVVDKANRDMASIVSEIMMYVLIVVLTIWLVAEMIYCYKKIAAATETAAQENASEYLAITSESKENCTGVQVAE

Compound | IC50
O=C(NS(=O)(=O)N1CCCC1)c1cc(Cl)c(Oc2cnc(OCC(F)(F)C(F)F)c(Cl)c2)cc1F [Preparation 66, 5-chloro-4-((5-chloro-6-(2,2,3,3-tetrafluoro-propoxy)pyridin-3-yl)oxy)-2-fluoro-N-(pyrrolidin-1-ylsulfonyl)benzamide] | 26 nM
CC(C)COc1ncc(Oc2cc(F)c(C(=O)NS(=O)(=O)N3CCN(C(=O)OC(C)(C)C)CC3)cc2Cl)cc1Cl [Preparation 41, tert-butyl 4-(N-(5-chloro-4-((5-chloro-6-isobutoxy-pyridin-3-yl)oxy)-2-fluorobenzoyl)sulfamoyl)piperazine-1-carboxylate] | 3800 nM
CC(C)COc1ncc(Oc2cc(F)c(C(=O)NS(=O)(=O)N(C)C)cc2C#N)cc1Cl [Preparation 65, 4-((5-chloro-6-iso-butoxypyridin-3-yl)oxy)-5-cyano-N-(N,N-dimethylsulfamoyl)-2-fluorobenzamide] | 93 nM
CN(C)S(=O)(=O)NC(=O)c1cc(Cl)c(Oc2ccc(C#N)cc2)cc1F [Preparation 43, 5-chloro-4-(4-cyano-phenoxy)-N-(N,N-dimethylsulfamoyl)-2-fluorobenzamide] | 10000 nM
CN(C)S(=O)(=O)NC(=O)c1cc(Cl)c(Oc2cnc(N3CCCCC3)c(Cl)c2)cc1F [Preparation 63, 5-chloro-4-((5-chloro-6-(piperidin-1-yl)pyridin-3-yl)oxy)-N-(N,N-dimethyl-sulfamoyl)-2-fluoro-benzamide] | 140 nM
CNS(=O)(=O)NC(=O)c1cc(Cl)c(COc2ccc(OC(F)(F)F)c(Cl)c2)cc1F [Preparation 100] | 43 nM
CN(C)S(=O)(=O)NC(=O)c1cc(Cl)c(Oc2ccc3cnn(C)c3c2)cc1F [Preparation 62, 5-chloro-N-(N,N-dimethylsulfamoyl)-2-fluoro-4-((1-methyl-1H-indazol-6-yl)oxy) benzamide] | 14000 nM
COc1ccc(CCOc2cc(F)c(C(=O)NS(=O)(=O)N(C)C)cc2Cl)cc1 [Preparation 57, 5-chloro-N-(N,N-dimethylsulfamoyl)-2-fluoro-4-(4-methoxy-phenethoxy)benzamide] | 2400 nM
CNS(=O)(=O)NC(=O)c1cc(Cl)c(Oc2cnc(Cl)c(Cl)c2)cc1F [Preparation 38, 5-chloro-4-((5,6-dichloropyridin-3-yl)oxy)-2-fluoro-N-(N-methyl-sulfamoyl)benzamide] | 628 nM
CN(C)S(=O)(=O)NC(=O)c1cc(Cl)c(Oc2ccc(-c3nccs3)cc2)cc1F [Preparation 44, 5-chloro-N-(N,N-dimethylsulfamoyl)-2-fluoro-4-(4-(thiazol-2-yl)phenoxy) benzamide] | 869 nM
CC(C)COc1ncc(Oc2cc(F)c(C(=O)NS(N)(=O)=O)cc2C#N)cc1Cl [Preparation 75, 4-((5-chloro-6-iso-butoxypyridin-3-yl)oxy)-5-cyano-2-fluoro-N-sulfamoyl-benzamide] | 290 nM
NS(=O)(=O)NC(=O)c1cc(Cl)c(Oc2ccc3ccccc3c2)cc1F [Preparation 48, 5-chloro-2-fluoro-4-(naphthalen-2-yloxy)-N-sulfamoyl-benzamide] | 138 nM
CN(C)S(=O)(=O)NC(=O)c1cc(Cl)c(Oc2ccc3ccccc3c2)cc1F [Preparation 47, 5-chloro-N-(N,N-dimethylsulfamoyl)-2-fluoro-4-(naphthalen-2-yloxy)benzamide] | 4070 nM
CN(C)S(=O)(=O)NC(=O)c1cc(Cl)c(OCCc2ccccc2)cc1F [Preparation 58, 5-chloro-N-(N,N-dimethylsulfamoyl)-2-fluoro-4-phenethoxy-benzamide] | 1300 nM
CN(C)S(=O)(=O)NC(=O)c1cc(Cl)c(Oc2ccc3cc[nH]c3c2)cc1F [Preparation 56, 4-((1H-indol-6-yl)oxy)-5-chloro-N-(N,N-dimethyl-sulfamoyl)-2-fluoro-benzamide] | 990 nM
CC(C)COc1ncc(Oc2cc(F)c(C(=O)NS(=O)(=O)N3CCC3)cc2Cl)cc1Cl [Preparation 46, N-(azetidin-1-ylsulfonyl)-5-chloro-4-((5-chloro-6-iso-butoxypyridin-3-yl)oxy)-2-fluorobenzamide] | 9.2 nM
CNS(=O)(=O)NC(=O)c1cc(Cl)c(COc2ccc(Cl)c(C(F)(F)F)c2)cc1F [Preparation 78] | 35 nM
CN(C)S(=O)(=O)NC(=O)c1cc(Cl)c(Oc2cccc3ccccc23)cc1F [Preparation 52, 5-chloro-N-(N,N-dimethylsulfamoyl)-2-fluoro-4-(naphthalen-1-yloxy)benzamide] | 5200 nM

Compound | IC50
CN(C)S(=O)(=O)NC(=O)c1cc(Cl)c(Oc2ccc(F)c(F)c2)cc1F [Preparation 49, 5-chloro-4-(3,4-difluorophenoxy)-N-(N,N-dimethyl-sulfamoyl)-2-fluorobenzamide] | 3470 nM
O=C(NS(=O)(=O)N1CCC1)c1cc(Cl)c(COc2ccc(OC(F)(F)F)c(Cl)c2)cc1F [Preparation 79] | 17 nM
NS(=O)(=O)NC(=O)c1cc(Cl)c(Oc2cnc(Cl)c(Cl)c2)cc1F [Preparation 34, 5-chloro-4-((5,6-dichloropyridin-3-yl)oxy)-2-fluoro-N-sulfamoylbenzamide] | 4680 nM
O=C(NS(=O)(=O)N1CCC1)c1cc(C2CC2)c(COc2ccc(Cl)c(Cl)c2)cc1F [Preparation 98] | 9 nM
NS(=O)(=O)NC(=O)c1cc(Cl)c(Oc2cccc3ccccc23)cc1F [Preparation 53, 5-chloro-2-fluoro-4-(naphthalen-1-yloxy)-N-sulfamoylbenzamide] | 23000 nM
Cc1nc2ccc(Oc3cc(F)c(C(=O)NS(=O)(=O)N(C)C)cc3Cl)cc2s1 [Preparation 64, 5-chloro-N-(N,N-dimethylsulfamoyl)-2-fluoro-4-((2-methyl-benzo[d]thiazol-6-yl)oxy)benzamide] | 1900 nM
NS(=O)(=O)NC(=O)c1cc(Cl)c(Oc2cnc(OCC(F)(F)C(F)F)c(Cl)c2)cc1F [Preparation 37, 5-chloro-4-((5-chloro-6-(2,2,3,3-tetrafluoro-propoxy)pyridin-3-yl)oxy)-2-fluoro-N-sulfamoylbenzamide] | 171 nM
O=C(NS(=O)(=O)N1CCC1)c1cc(C2CC2)c(Oc2cnc(OCC(F)(F)F)c(Cl)c2)cc1F [Preparation 94] | 9 nM
CN(C)S(=O)(=O)NC(=O)c1cc(F)c(Oc2ccc(OC(F)(F)F)c(Cl)c2)cc1F [Preparation 31, 4-(3-chloro-4-(tri-fluoromethoxy)phenoxy)-N-(N,N-dimethylsulfamoyl)-2,5-difluoro-benzamide] | 860 nM
CC(C)Oc1ncc(Oc2cc(F)c(C(=O)NS(=O)(=O)N3CCC3)cc2C2(O)COC2)cc1Cl [Preparation 89] | 1300 nM
CN(C)S(=O)(=O)NC(=O)c1cc(Cl)c(Oc2cc(OC(F)(F)F)ccc2F)cc1F [Preparation 70, 5-chloro-N-(N,N-dimethylsulfamoyl)-2-fluoro-4-(2-fluoro-5-(trifluoromethoxy)phenoxy)benzamide] | 340 nM
CN(C)S(=O)(=O)NC(=O)c1cc(Cl)c(Oc2ccc(S(C)(=O)=O)cc2)cc1F [Preparation 61, 5-chloro-N-(N,N-dimethylsulfamoyl)-2-fluoro-4-(4-(methyl-sulfonyl)phenoxy) benzamide] | 20000 nM
NS(=O)(=O)NC(=O)c1cc(Cl)c(Oc2ccc(F)c(F)c2)cc1F [Preparation 50, 5-chloro-4-(3,4-difluorophenoxy)-2-fluoro-N-sulfamoylbenzamide] | 656 nM
CN(C)S(=O)(=O)NC(=O)c1cc(Cl)c(Oc2cnc(Cl)c(Cl)c2)cc1F [Preparation 35, 5-chloro-4-((5,6-dichloropyridin-3-yl)oxy)-N-(N,N-dimethylsulfamoyl)-2-fluorobenzamide] | 665 nM
CNS(=O)(=O)NC(=O)c1ccc(Oc2cnc(OC(C)C)c(Cl)c2)c(-c2cccnc2OC)c1 [Preparation 83] | 43 nM
O=C(NS(=O)(=O)N1CCC1)c1ccc(Oc2ccc(OC(F)(F)F)c(Cl)c2)c(C2(O)COC2)c1 [Preparation 81] | 20200 nM
O=C(NS(=O)(=O)N1CCC1)c1cc(C2CC2)c(COc2cc(Cl)cc(OC(F)(F)F)c2)cc1F [Preparation 95] | 2 nM
